Values joined by “and” are separate entries in the source; they are usually repeats but may differ in a detail not shown here. Equal values may be shown once.
Tests used:
[1] = tested on: mouse colon cancer CT26-KRAS G12C allograft tumor; experiment: In vivo pharmacodynamic study, BALB/c mouse subcutaneous allograft tumor model of CT26-KRAS G12C cells (Example 8)
Protocol: Species: mice; Strain: BALB/c mice; Age and weight: 6-8 weeks old, weighing: 18-22 g; Gender: female; Quantity: 49 (excluding remaining mice after grouping); Supplier: LINGCHANG BIOTECH.
Mouse colon cancer CT26-KRAS G12C cells were cultured in monolayer in vitro. The culture conditions were RPMI1640 medium with 10% fetal bovine serum, 1% penicillin/streptomycin/amphotericin B, and 37° C. 5% CO2 incubator. Trypsin-EDTA was used twice a week for routine digestion and passage. When the cell saturation was 80%-90% and the number reached the requirements, the cells were collected, counted and inoculated.
0.1 mL (0.3×10^6 cells) of CT26-KRAS G12C cells were subcutaneously inoculated on the right back of each mouse, and grouping and drug administration began when the average tumor volume reached about 55 mm^3.
The diameter of tumor was measured three times a week with vernier caliper. The formula for calculating the tumor volume is: V=0.5×a×b^2, where a and b represent the long and short diameters of the tumor respectively.
The anti-tumor effect of the compound was evaluated by TGI (%) or relative tumor proliferation rate T/C(%). The relative tumor proliferation rate is T/C(%)=TRTV/CRTV×100% (TRTV: RTV in treatment group; CRTV: RTV in negative control group). According to the results of tumor measurement, the relative tumor volume (RTV) was calculated, and the calculation formula is RTV=Vt/V0, where V0 is the average tumor volume measured at the time of grouping and drug administration (i.e., D0), Vt is the average tumor volume measured at a certain time, and data on the same day were used for TRTV and CRTV.
TGI (%) reflects the tumor growth inhibition rate. TGI (%)=[1−(average tumor volume at the end of administration in a certain treatment group-average tumor volume at the beginning of administration in the treatment group)/(average tumor volume at the end of administration in solvent control group-average tumor volume at the beginning of administration in the solvent control group)]×100%.
Statistical analysis included the mean and standard error (SEM) of tumor volume at each time point in each group (see the specific data in Table 7). Based on the tumor volume data on the 19th day after administration, statistical analysis was performed to evaluate the differences between groups. T-test was used to analyze the comparison between two groups, and one-way ANOVA was used to analyze the comparison between three or more groups. If there was significant difference in F value, Games-Howell method was used for the test. If there was no significant difference in F value, Dunnet (2-sided) method was used for analysis. All data were analyzed by SPSS 17.0. P<0.05 was considered to have significant difference.

[2] = tested on: Mouse colon cancer CT26 cells; experiment: CT26 cells with IN10018 and Lurbinectedin: microscope and flow cytometry for CRT / Annexin V (Example 2); assay type: cell-based; conditions: CT26, 48 hours; IN10018 5 μM, Lurbinectedin 0.00142 μM
Protocol: Mouse colon cancer CT26 cells (Insitute of Biochemistry and Cell Biology) were cultured with RPMI-1640 (Shanghai Basalmedia, classification number: L210KJ, batch number: F210916)+10% FBS (Gibco, classification number: 10099-141c, batch number: 2158737cp) and passaged twice. When the cells were in good condition, the culture solution was placed in a 24-well plate. After the cells were spread for 24 hours, four groups were set up, wherein the first group was a control group, and the culture medium was added; the second group was IN10018 with a concentration of 5 μM; the third group was Lurbinectedin (DC chemicals, classification number: DC12502, batch number: DC1250203) with a concentration of 0.00142 μM; and the fourth group was IN10018 (5 μM) combined with Lurbinectedin (0.00142 μM). The drugs were mixed and the mixture was cultured in a 5% CO2 incubator at 37° C. for 48 hours.
After 48 hours of drug action, the cells were observed under a microscope and photographed, and the photos were kept. Then the cells were collected, subjected to flow analysis, and washed twice with flow buffer (PBS+2% FBS). 0.5 μl of AF647 anti-Calreticulin antibody (abcam, classification number: ab196159, batch number: CR33676773) was added to each well and fully mixed. […] The mixture was cultured at room temperature in the dark for 15 minutes, and then analyzed by flow cytometry.

[3] = Body weight / tolerability of KPL tumor-bearing mice (Example 12); assay type: in vivo; conditions: KPL tumor-bearing C57BL/6 mice
Protocol: All the procedures related to animal handling, care and the treatment in the study were conducted according to guidelines approved by the Institutional Animal Care and Use Committee (IACUC) following the guidance of the Association for Assessment and Accreditation of Laboratory Animal Care (AAALAC). At the time of routine monitoring, the animals were daily checked for any effects of tumor growth and treatments on normal behavior such as mobility, food and water consumption (by looking only), body weight gain/loss (body weights were measured every two days or twice weekly), eye/hair matting and any other abnormal effects as stated in the protocol. Death and observed clinical signs were recorded on the basis of the numbers of animals within each subset.
The body weight of KPL tumor-bearing mice was monitored regularly as an indirect index of toxicity.

[4] = tested on: Mouse colon cancer CT26 cells; experiment: Proliferation of CT26 cells, CCK8, MRTX1133 with or without IN10018 (Example 3); assay type: cell-based; conditions: 72 hours, combination group: 5 μM IN10018 added to each well
Protocol: Mouse colon cancer CT26 cells (Insitute of Biochemistry and Cell Biology) were cultured with RPMI-1640 (Shanghai Basalmedia, classification number: L210KJ, batch number: F210916)+10% FBS (Gibco, classification number: 10099-141c, batch number: 2158737cp) and passaged twice. When the cells were in good condition, the culture solution was placed in a 96-well plate with 3000 cells/well. After the cells were spread for 24 hours, a culture medium containing MRTX1133 (SuperLan Chemical Co., Ltd., classification number: P2621928-55-8, batch number: 131005) was added. 10 drug action concentrations were set, wherein the first concentration was 30 μM, which was serially diluted 5 times, and the last concentration was a control with a drug concentration of 0. Each drug concentration was set in triplicate. At the same time, another group of cells was established with the same drug concentration as the above method. The difference was that 5 μM IN10018 was added to each well. The drugs were mixed and the mixture was cultured in a 5% CO2 incubator at 37° C. for 72 hours.
After 72 hours of drug action, the cells were observed under a microscope, and 10 μl of CCK8 detection reagent (Cellorlab, classification number: CX001M, batch number: 2571100) was added to each well. […] Then the plate was read with a microplate reader OD450 ([…]).

[5] = Day 19, D-1553 5 mg/kg PO QD, IN10018 25 mg/kg PO QD, INX0082 10 mg/kg IP BIW

SMILES	Tumor volume (Day 0) ([1]; Day 0, at grouping, Average ± SEM, n = 7)	T/C (%) (Day 19) [1, 5]	TGI (%) (Day 19) [1, 5]	Tumor volume (Day 19) ([1]; Day 19, D-1553 5 mg/kg PO QD, IN10018 25 mg/kg PO QD, INX0082 10 mg/kg IP BIW, Average ± SEM, n = 7)	anti-tumor effect compared with the solvent control group ([1]; Day 19, D-1553 5 mg/kg, IN10018 25 mg/kg, INX0082 10 mg/kg)	cell state under a microscope [2]	tolerability in KPL model [3]	IC50 [4]
COc1cc(C(=O)NC2CCN(C)CC2)c(F)cc1Nc1ncc(C(F)(F)F)c(Oc2cccc3c2C(=O)N(C)C3)n1 [IN10018]	55 ± 3 mm^3	74.7%	23.4%	1352 mm^3 and 1352 ± 284 mm^3	no anti-tumor effect	good	–	–
C#Cc1c(F)ccc2cc(O)cc(-c3ncc4c(N5CC6CCC(C5)N6)nc(OC[C@@]56CCCN5C[C@H](F)C6)nc4c3F)c12 [MRTX1133]	–	–	–	–	–	–	well-tolerated	280 nM

Reference: US20240285627A1, “DRUG COMBINATION OF FAK INHIBITOR AND IMMUNOGENIC CELL DEATH INDUCER AND USE THEREOF” (INXMED (NANJING) CO., LTD., priority 2022, published 2024)
